In patent publication US20120083522A1, “MODULATION OF INFLAMMATORY RESPONSES BY FACTOR XI” (Isis Pharmaceuitcals, inc., priority 2009, published 2012):
In the oligonucleotide strings, read from the 5' end, every base follows the letter of its sugar. An asterisk marks phosphorothioate; unmarked linkages are phosphodiester. Other units and linkages are bracketed, terminal groups are in braces. A string of capitals states the bases alone. e = 2'-O-(2-methoxyethyl) (MOE); [5mC] = 5-methylcytosine; d = 2'-deoxy (DNA)

Tests used:
Format in all cases: cell-based
human Factor XI mRNA [1] = assay: Dose-dependent inhibition in HepG2 cells, electroporation (Example 4); conditions: 16 hours
Protocol: (§1) The gapmers were also transfected via electroporation and their dose dependent inhibition of human Factor XI mRNA was measured. Cells were plated at a density of 20,000 cells per well and transfected via electroporation with 0.7 μM, 2.2 μM, 6.7 μM, and 20 μM concentrations of antisense oligonucleotide, as specified in Table 10. After a treatment period of approximately 16 hours, RNA was isolated from the cells and Factor XI mRNA levels were measured by quantitative real-time PCR. Human Factor XI primer probe set RTS 2966 was used to measure mRNA levels. Factor XI mRNA levels were adjusted according to total RNA content, as measured by RIBOGREEN®. Results are presented as percent inhibition of Factor XI, relative to untreated control cells.

human Factor XI mRNA [2] = assay: Antisense inhibition in HepG2 cells by microwalk gapmers, 75 nM, lipofectin (Example 3); conditions: HepG2 cells, 75 nM, oligonucleotides targeted to nucleobases 1062 to 1091 of SEQ ID NO: 1
In short: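 HepG2 cells (10,000 per well) were transfected with 75 nM gapmer using lipofectin and treated for about 24 h. Factor XI mRNA was quantified by real-time PCR, normalized to RiboGreen total RNA and expressed as percent inhibition versus untreated controls.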

human Factor XI mRNA [3] = assay: Dose-dependent inhibition in HepG2 cells, lipofectin (Example 4); conditions: 16 hours
Protocol: as §1, with “Cells” for “The gapmers were also transfected via electroporation and their dose dependent inhibition of human Factor XI mRNA was measured. Cells”, “10,000” for “20,000”, “using lipofectin reagent” for “via electroporation”, “9.375 nM, 18.75 nM, 37.5 nM” for “0.7 μM, 2.2 μM, 6.7 μM,”, “75 nM” for “20 μM”, “9.” for “10.”

Row | Substance | percent inhibition of Factor XI mRNA, relative to untreated control cells (human Factor XI mRNA [1]; 0.7 μM) [%] | percent inhibition of Factor XI mRNA, relative to untreated control cells (human Factor XI mRNA [1]; 2.2 μM) [%] | percent inhibition of Factor XI mRNA, relative to untreated control cells (human Factor XI mRNA [1]; 6.7 μM) [%] | percent inhibition of Factor XI mRNA, relative to untreated control cells (human Factor XI mRNA [1]; 20 μM) [%] | % inhibition of human Factor XI mRNA levels (human Factor XI mRNA [2]) [%] | percent inhibition of Factor XI mRNA, relative to untreated control cells (human Factor XI mRNA [3]; 9.375 nM) [%] | percent inhibition of Factor XI mRNA, relative to untreated control cells (human Factor XI mRNA [3]; 18.75 nM) [%] | percent inhibition of Factor XI mRNA, relative to untreated control cells (human Factor XI mRNA [3]; 37.5 nM) [%] | percent inhibition of Factor XI mRNA, relative to untreated control cells (human Factor XI mRNA [3]; 75 nM) [%]
1 | 416989 (antisense eG*eA*dG*dA*dT*dT*d[5mC]*dT*dT*dT*dG*dG*dG*d[5mC]*d[5mC]*eA*eT*eT*e[5mC]*e[5mC]) [compound 416989] | 32 | 65 | 88 | 94 | 88 | 18 | 41 | 62 | 83
2 | 416993 (antisense e[5mC]*eT*dT*dT*dG*dA*dG*dA*dT*dT*d[5mC]*dT*dT*dT*dG*eG*eG*e[5mC]*e[5mC]*eA) [compound 416993] | 22 | 48 | 87 | 92 | 91 | 15 | 37 | 50 | 68
